Source: article PMC6713143, “Design, synthesis and biological activity of selective hCAs inhibitors based on 2-(benzylsulfinyl)benzoic acid scaffold” (Journal of Enzyme Inhibition and Medicinal Chemistry, 2019)
Read-outs that look alike come from different tables or passages of the source.

Columns and labels:
hCA I [1] = biological target: T1, hCA I (Homo sapiens, UniProt P00915); assay: stopped-flow CO2 hydrase assay, hCA I; format: biochemical; details: mean from three determinations, errors 5–10%
T1 construct: made in house
Procedure: (§1) An Applied Photophysics stopped-flow instrument has been used for assaying the CA catalysed CO2 hydration activity. […] The CO2 concentrations ranged from 1.7 to 17 mM for the determination of the kinetic parameters and inhibition constants. In particular, CO2 was bubbled in distilled deionised water for 30 min till saturation. A CO2 kit (Sigma, Milan, Italy) was used to measure the concentration in serially diluted solutions from the saturated one at the same temperature. […] The uncatalyzed rates were determined in the same manner and subtracted from the total observed rates. Stock solutions of inhibitor (1 µM) were prepared in distilled-deionised water and dilutions up to 0.1 nM were done thereafter with the assay buffer. […] The inhibition constants were obtained by non-linear least-squares methods using PRISM 3 and the Cheng-Prusoff equation[29], and represent the average from at least three different determinations. All recombinant CA isoforms were obtained in-house as previously reported[30]^,[31].

hCA II [2] = biological target: T2, hCA II (Homo sapiens, UniProt P00918); assay: stopped-flow CO2 hydrase assay, hCA II; format: biochemical; details: mean from three determinations, errors 5–10%
T2 construct: made in house
Procedure: as §1

hCA IX [3] = biological target: T3, hCA IX (Homo sapiens, UniProt Q16790); assay: stopped-flow CO2 hydrase assay, hCA IX; format: biochemical; details: mean from three determinations, errors 5–10%
T3 construct: made in house
Procedure: as §1

hCA XII [4] = biological target: T4, hCA XII (Homo sapiens, UniProt O43570); assay: stopped-flow CO2 hydrase assay, hCA XII; format: biochemical; details: mean from three determinations, errors 5–10%
T4 construct: made in house
Procedure: as §1

hCA I [5] = biological target: T1, hCA I; set-up: method as in PMID 25407638; details: lead compound, earlier report; cited from earlier work
hCA II [6] = biological target: T2, hCA II; set-up: method as in PMID 25407638; details: lead compound, earlier report; cited from earlier work
hCA IX [7] = biological target: T3, hCA IX; set-up: method as in PMID 25407638; details: lead compound, earlier report; cited from earlier work
hCA XII [8] = biological target: T4, hCA XII; set-up: method as in PMID 25407638; details: lead compound, earlier report; cited from earlier work

T1 sequence (P00915 whole entry): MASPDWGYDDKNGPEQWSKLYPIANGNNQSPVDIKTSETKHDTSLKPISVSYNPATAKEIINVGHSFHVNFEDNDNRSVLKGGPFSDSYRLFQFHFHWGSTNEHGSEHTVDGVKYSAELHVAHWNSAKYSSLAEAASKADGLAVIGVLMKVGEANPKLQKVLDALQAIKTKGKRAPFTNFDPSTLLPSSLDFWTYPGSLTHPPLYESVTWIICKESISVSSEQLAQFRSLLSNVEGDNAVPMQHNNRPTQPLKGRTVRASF
T4 sequence (O43570 25-354): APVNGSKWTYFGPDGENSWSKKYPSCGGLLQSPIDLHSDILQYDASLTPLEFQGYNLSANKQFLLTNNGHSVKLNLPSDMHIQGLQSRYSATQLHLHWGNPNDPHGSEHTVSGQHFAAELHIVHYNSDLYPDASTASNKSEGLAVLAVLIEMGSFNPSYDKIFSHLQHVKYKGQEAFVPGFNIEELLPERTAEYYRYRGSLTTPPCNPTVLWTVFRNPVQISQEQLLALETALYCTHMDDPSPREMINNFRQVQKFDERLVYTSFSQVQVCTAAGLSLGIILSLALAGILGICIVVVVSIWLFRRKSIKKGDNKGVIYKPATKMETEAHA

Ki (hCA I [1]) [µM] | Ki (hCA II [2]) [µM] | Ki (hCA IX [3]) [µM] | Ki (hCA XII [4]) [µM] | Compound | further results
> 100 | 0.21 | 1.4 | – | O=C(O)c1ccccc1[S@+]([O-])Cc1ccccc1 [(R)-5] | –
> 100 | 84.9 | 15.3 | – | COC(=O)c1ccccc1[S@+]([O-])Cc1ccccc1 [(R)-8] | –
> 100 | > 100 | 1.4 | – | COC(=O)c1ccccc1[S@+]([O-])Cc1ccc(Cl)cc1 [(R)-11] | –
> 100 | 52.2 | 2.2 | – | NC(=O)c1ccccc1[S@+]([O-])Cc1ccccc1 [(R)-17] | –
> 100 | 52.2 | 22.8 | – | CNC(=O)c1ccccc1[S@+]([O-])Cc1ccccc1 [(R)-20] | –
> 100 | 0.093 | 1.2 | – | O=C(O)c1ccccc1[S@@+]([O-])Cc1ccccc1 [(S)-5] | –
> 100 | 65.7 | 20 | – | COC(=O)c1ccccc1[S@@+]([O-])Cc1ccccc1 [(S)-8] | –
> 100 | > 100 | 18.1 | – | COC(=O)c1ccccc1[S@@+]([O-])Cc1ccc(Cl)cc1 [(S)-11] | –
> 100 | 51.9 | 1.9 | – | NC(=O)c1ccccc1[S@@+]([O-])Cc1ccccc1 [(S)-17] | –
> 100 | 38.9 | 24.6 | – | CNC(=O)c1ccccc1[S@@+]([O-])Cc1ccccc1 [(S)-20] | –
> 100 | > 100 | 1.1 | – | CC(=O)c1ccccc1SCc1ccccc1 [Compound 1] | –
> 100 | 63.2 | 2 | – | CC(=O)c1ccccc1[S+]([O-])Cc1ccccc1 (stereo not shown) [Compound 2] | –
> 100 | > 100 | 16.4 | – | CC(=O)c1ccccc1S(=O)(=O)Cc1ccccc1 [Compound 3] | –
> 100 | > 100 | 2.3 | – | O=C(O)c1ccccc1S(=O)(=O)Cc1ccccc1 [Compound 6] | –
> 100 | 75.2 | 15 | – | COC(=O)c1ccccc1SCc1ccccc1 [Compound 7] | –
> 100 | > 100 | 11.4 | – | COC(=O)c1ccccc1S(=O)(=O)Cc1ccccc1 [Compound 9] | –
> 100 | 45.7 | 1 | – | COC(=O)c1ccccc1SCc1ccc(Cl)cc1 [Compound 10] | –
> 100 | 40.1 | 21.1 | – | COC(=O)c1ccccc1S(=O)(=O)Cc1ccc(Cl)cc1 [Compound 12] | –
> 100 | > 100 | > 100 | – | COC(=O)c1ccccc1SCC(=O)c1ccccc1 [Compound 13] | –
> 100 | > 100 | > 100 | – | COC(=O)c1ccccc1[S+]([O-])CC(=O)c1ccccc1 (stereo not shown) [Compound 14] | –
> 100 | > 100 | > 100 | – | COC(=O)c1ccccc1S(=O)(=O)CC(=O)c1ccccc1 [Compound 15] | –
> 10 | 8.22 | 0.046 | 2.66 | NC(=O)c1ccccc1SCc1ccccc1 [Compound 16] | Ki hCA XII (hCA XII [4]): medium-potency inhibitor
> 10 | 2.67 | > 10 | 0.066 | NC(=O)c1ccccc1S(=O)(=O)Cc1ccccc1 [Compound 18] | Ki hCA IX (hCA IX [3]): completely lost the affinity
> 100 | 86.3 | 19.8 | – | CNC(=O)c1ccccc1SCc1ccccc1 [Compound 19] | –
> 100 | 68.2 | 25.8 | – | CNC(=O)c1ccccc1S(=O)(=O)Cc1ccccc1 [Compound 21] | –
> 100 | > 100 | > 100 | – | CCCC[S+]([O-])c1ccccc1C(=O)OC (stereo not shown) [Compound 22] | Ki hCA I (hCA I [1]): inactive; Ki hCA II (hCA II [2]): inactive; Ki hCA IX (hCA IX [3]): inactive
> 100 | > 100 | > 100 | – | CCCCC[S+]([O-])c1ccccc1C(=O)OC (stereo not shown) [Compound 23] | Ki hCA I (hCA I [1]): inactive; Ki hCA II (hCA II [2]): inactive; Ki hCA IX (hCA IX [3]): inactive
> 100 | > 100 | 6.5 | > 100 | CSc1ccccc1C(N)=O [Compound 24] | –

Ki (hCA I [1]) [µM] | Ki (hCA II [2]) [µM] | Ki (hCA IX [3]) [µM] | Ki (hCA XII [4]) [µM] | Compound | further results
> 100 | > 100 | 34.5 | > 100 | C[S+]([O-])c1ccccc1C(N)=O (stereo not shown) [Compound 25] | –
> 100 | > 100 | 14 | > 100 | CS(=O)(=O)c1ccccc1C(N)=O [Compound 26] | –
> 100 | > 100 | 16.7 | > 100 | CCSc1ccccc1C(N)=O [Compound 27] | –
> 100 | > 100 | 40.9 | > 100 | CC[S+]([O-])c1ccccc1C(N)=O (stereo not shown) [Compound 28] | –
> 100 | > 100 | 22.7 | > 100 | CCS(=O)(=O)c1ccccc1C(N)=O [Compound 29] | –
> 100 | 90.9 | > 100 | > 100 | CCCSc1ccccc1C(N)=O [Compound 30] | –
> 100 | > 100 | 38.2 | > 100 | CCC[S+]([O-])c1ccccc1C(N)=O (stereo not shown) [Compound 31] | –
> 100 | > 100 | 2.3 | > 100 | CCCS(=O)(=O)c1ccccc1C(N)=O [Compound 32] | –
> 100 | > 100 | 2.5 | > 100 | CCCCSc1ccccc1C(N)=O [Compound 33] | –
> 100 | > 100 | 36.4 | > 100 | CCCC[S+]([O-])c1ccccc1C(N)=O (stereo not shown) [Compound 34] | –
> 100 | > 100 | 13.5 | > 100 | CCCCS(=O)(=O)c1ccccc1C(N)=O [Compound 35] | –
> 100 | > 100 | 2.7 | > 100 | CCCCCSc1ccccc1C(N)=O [Compound 36] | –
> 100 | > 100 | 27.3 | > 100 | CCCCC[S+]([O-])c1ccccc1C(N)=O (stereo not shown) [Compound 37] | –
> 100 | > 100 | 8.7 | > 100 | CCCCCS(=O)(=O)c1ccccc1C(N)=O [Compound 38] | –
> 100 | > 100 | > 100 | > 100 | O=C(O)c1ccccc1OCc1ccccc1 [Compound 39] | –
> 100 | > 100 | > 100 | > 100 | O=C(O)c1ccccc1NCc1ccccc1 [Compound 40] | –
> 100 | > 100 | > 100 | > 100 | O=C(O)c1ccccc1CCc1ccccc1 [Compound 41] | –
> 100 | > 100 | > 100 | > 100 | O=C(Cc1ccccc1)Nc1ccccc1C(=O)O [Compound 42] | –
> 100 | > 100 | > 100 | > 100 | COC(=O)c1ccccc1OCc1ccccc1 [Compound 44] | –
> 100 | > 100 | > 100 | > 100 | COC(=O)c1ccccc1NCc1ccccc1 [Compound 45] | –
> 100 | > 100 | > 100 | > 100 | COC(=O)c1ccccc1CCc1ccccc1 [Compound 46] | –
> 100 | > 100 | > 100 | > 100 | NC(=O)c1ccccc1NCc1ccccc1 [Compound 48] | –
> 100 | > 100 | > 100 | > 100 | NC(=O)c1ccccc1CCc1ccccc1 [Compound 49] | –
> 100 | > 100 | > 100 | > 100 | NC(=O)c1ccccc1NC(=O)Cc1ccccc1 [Compound 50] | –
> 100 | > 100 | > 100 | > 100 | O=C(NO)c1ccccc1NCc1ccccc1 [Compound 51] | –
> 100 | > 100 | > 100 | > 100 | CC(=O)c1ccccc1NCc1ccccc1 [Compound 53] | –
– | – | – | – | O=C(O)c1ccccc1[S+]([O-])Cc1ccccc1 (stereo not shown) [lead compound, 2-(benzylsulfinyl)benzoic acid] | Ki (hCA I [5]): > 10 µM; Ki (hCA II [6]): 0.15 µM; Ki (hCA IX [7]): 1.29 µM; Ki (hCA XII [8]): > 10 µM

Compound | Ki (hCA I [1]) [µM] | Ki (hCA II [2]) [µM] | Ki (hCA IX [3]) [µM] | Ki (hCA XII [4]) [µM] | further results
Nc1ccccc1C(=O)O [Compound 43, anthranilic acid] | > 100 | > 100 | > 100 | > 100 | –
CC(=O)c1ccccc1OCc1ccccc1 [Compound 52] | > 100 | > 100 | > 100 | > 100 | –
